From ChEMBL document CHEMBL1201862, “PubChem BioAssay data set” (2004)
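Briefly, cells in 96-well plates were exposed to five compound concentrations for 48 h, and endpoints were estimated by linear interpolation. GI50 is the concentration that inhibits growth by half.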 The source made the active and inactive calls. Rule as the data show it: active = GI50 up to about 1.1 µM and inactive = higher.

Columns and labels:
Assay in all cases: growth of human tumour cells (NCI), 48 h
ACHN = tested on: ACHN
CCRF-CEM = tested on: CCRF-CEM
COLO 205 = tested on: COLO 205
DU-145 = tested on: DU-145
EKVX = tested on: EKVX
HCC 2998 = tested on: HCC 2998
IGROV-1 = tested on: IGROV-1
MCF7 = tested on: MCF7
MDA-MB-435 = tested on: MDA-MB-435
MDA-N = tested on: MDA-N
NCI-H23 = tested on: NCI-H23
NCI-H460 = tested on: NCI-H460
NCI-H522 = tested on: NCI-H522
SF-539 = tested on: SF-539
SK-OV-3 = tested on: SK-OV-3
SN12C = tested on: SN12C
SW-620 = tested on: SW-620
UACC-62 = tested on: UACC-62
PC-3 = tested on: PC-3

| SMILES | GI50 (ACHN) | GI50 (CCRF-CEM) | GI50 (COLO 205) | GI50 (DU-145) | GI50 (EKVX) | GI50 (HCC 2998) | GI50 (IGROV-1) | GI50 (MCF7) | GI50 (MDA-MB-435) | GI50 (MDA-N) | GI50 (NCI-H23) | GI50 (NCI-H460) | GI50 (NCI-H522) | GI50 (SF-539) | GI50 (SK-OV-3) | GI50 (SN12C) | GI50 (SW-620) | GI50 (UACC-62) | GI50 (PC-3) |
| --- | --- | --- | --- | --- | --- | --- | --- | --- | --- | --- | --- | --- | --- | --- | --- | --- | --- | --- | --- |
| O=c1c2cccnc2[s+]([O-])n1Cc1ccccc1 (centres undefined) | > 100 µM (inactive) | 3.01 µM (inactive) | > 100 µM (inactive) | > 100 µM (inactive) | > 100 µM (inactive) | > 100 µM (inactive) | > 100 µM (inactive) | > 100 µM (inactive) | > 100 µM (inactive) | > 100 µM (inactive) | > 100 µM (inactive) | > 100 µM (inactive) | > 100 µM (inactive) | > 100 µM (inactive) | > 100 µM (inactive) | > 100 µM (inactive) | > 100 µM (inactive) | > 100 µM (inactive) |  |
| CCOC(=O)c1c(NCc2ccccc2)n(-c2ccccc2)c(=S)n(-c2ccccc2)c1=O | > 100 µM (inactive) | 29.4 µM (inactive) | 76.2 µM (inactive) | > 100 µM (inactive) |  | > 100 µM (inactive) | > 100 µM (inactive) | 53.3 µM (inactive) | > 100 µM (inactive) | > 100 µM (inactive) | > 100 µM (inactive) | > 100 µM (inactive) | 57.8 µM (inactive) |  |  | > 100 µM (inactive) | > 100 µM (inactive) | 94.8 µM (inactive) |  |
| COC(=O)CCn1cnc2c(SC)ncnc21 | > 100 µM (inactive) | > 100 µM (inactive) | > 100 µM (inactive) | > 100 µM (inactive) | > 100 µM (inactive) |  | > 100 µM (inactive) | > 100 µM (inactive) | > 100 µM (inactive) | > 100 µM (inactive) | > 100 µM (inactive) | > 100 µM (inactive) | > 100 µM (inactive) | > 100 µM (inactive) | > 100 µM (inactive) | > 100 µM (inactive) | > 100 µM (inactive) | > 100 µM (inactive) | > 100 µM (inactive) |
| O=C(N/N=C/c1ccccc1)c1cccc2nc3ccccc3nc12 | > 100 µM (inactive) | > 74.8 µM (inactive) | 4.08 µM (inactive) | 17.9 µM (inactive) | > 39.3 µM (inactive) |  | 63.5 µM (inactive) | > 45 µM (inactive) | 65 µM (inactive) | 54.2 µM (inactive) | 6.07 µM (inactive) | 3.5 µM (inactive) | 44.8 µM (inactive) | > 100 µM (inactive) | > 88.3 µM (inactive) | > 87.9 µM (inactive) | > 100 µM (inactive) | > 100 µM (inactive) | > 100 µM (inactive) |
| COc1cc(C2c3c(ccc4ccccc34)C(=O)C3CCC(=O)N32)cc(OC)c1O (centres undefined) | > 25 µM (inactive) | 19.9 µM (inactive) | > 25 µM (inactive) | > 25 µM (inactive) | > 25 µM (inactive) |  | > 25 µM (inactive) | > 25 µM (inactive) | > 25 µM (inactive) | > 25 µM (inactive) | > 25 µM (inactive) | > 25 µM (inactive) |  | > 25 µM (inactive) | > 25 µM (inactive) | > 25 µM (inactive) | > 25 µM (inactive) | > 25 µM (inactive) | > 25 µM (inactive) |
| O=C(O)CNC(=O)C1NC(C(F)(F)F)(C(F)(F)F)OC1(C(F)(F)F)C(F)(F)F (centres undefined) | > 100 µM (inactive) |  | > 100 µM (inactive) | > 100 µM (inactive) | > 100 µM (inactive) |  | > 100 µM (inactive) | > 100 µM (inactive) | > 100 µM (inactive) | > 100 µM (inactive) | > 100 µM (inactive) | > 100 µM (inactive) | > 100 µM (inactive) | > 100 µM (inactive) | > 100 µM (inactive) | > 100 µM (inactive) | > 100 µM (inactive) | > 100 µM (inactive) | > 100 µM (inactive) |
| COc1ccccc1N1CCN(S(=O)(=O)c2ccc(Cl)cc2)C1=N | 48.9 µM (inactive) |  | 73.6 µM (inactive) | 47.5 µM (inactive) | 26.9 µM (inactive) |  |  | 52.2 µM (inactive) | 45.9 µM (inactive) | 49.3 µM (inactive) | 60 µM (inactive) | 33.4 µM (inactive) | 40.5 µM (inactive) | 81.3 µM (inactive) | > 100 µM (inactive) | > 100 µM (inactive) | 64.6 µM (inactive) | 26.3 µM (inactive) | 56.8 µM (inactive) |
| COC(=O)N[C@@H]1C[C@H]2CC[C@]1(O[Si](C(C)C)(C(C)C)C(C)C)C(=O)C2 | 18.4 µM (inactive) | 18 µM (inactive) | 34.6 µM (inactive) | > 100 µM (inactive) | 15.4 µM (inactive) |  | 13.6 µM (inactive) | 21.1 µM (inactive) | 17.9 µM (inactive) | 21.9 µM (inactive) | 17.1 µM (inactive) | 20.7 µM (inactive) | 8.59 µM (inactive) |  | 21.3 µM (inactive) | 33.5 µM (inactive) | 27.7 µM (inactive) | 15.6 µM (inactive) | 12.9 µM (inactive) |
| N#Cc1nc(C(O)c2ccccc2)oc1N (centres undefined) | > 100 µM (inactive) | > 100 µM (inactive) | > 100 µM (inactive) | > 100 µM (inactive) | > 100 µM (inactive) |  | > 100 µM (inactive) | > 100 µM (inactive) |  | > 100 µM (inactive) | > 100 µM (inactive) |  | 76.6 µM (inactive) | > 100 µM (inactive) | > 100 µM (inactive) | > 100 µM (inactive) | > 100 µM (inactive) | > 100 µM (inactive) | > 100 µM (inactive) |
| O=C(C(=C(I)I)c1ccccc1)c1ccccc1 | 29.7 µM (inactive) | 1.08 µM (active) | 27.5 µM (inactive) |  | 28.8 µM (inactive) | > 10 µM (inactive) | 8.63 µM (inactive) | 49.8 µM (inactive) | 31.1 µM (inactive) | 19.1 µM (inactive) | 21 µM (inactive) | 27.5 µM (inactive) |  | 24.8 µM (inactive) | 59.6 µM (inactive) | 24 µM (inactive) | 28.8 µM (inactive) | 18.2 µM (inactive) | 28.4 µM (inactive) |
| N=C(N)NC(=N)Nc1c(F)c(F)c(F)c(F)c1F | > 100 µM (inactive) |  | 54 µM (inactive) | > 100 µM (inactive) | 44.1 µM (inactive) |  | > 100 µM (inactive) | 49.4 µM (inactive) | > 100 µM (inactive) | 69.7 µM (inactive) | 87.1 µM (inactive) | 90.4 µM (inactive) | 93.8 µM (inactive) | > 100 µM (inactive) | > 100 µM (inactive) | > 100 µM (inactive) | > 100 µM (inactive) | > 100 µM (inactive) | 97.9 µM (inactive) |
| O=Cc1coc2ccccc2c1=O | 19.5 µM (inactive) | 18.2 µM (inactive) | 16.1 µM (inactive) | 40.6 µM (inactive) | 22.4 µM (inactive) |  | 15.7 µM (inactive) | 19.2 µM (inactive) | 18.5 µM (inactive) | 20.5 µM (inactive) | 21.9 µM (inactive) | 20.9 µM (inactive) | 19.1 µM (inactive) | 16.1 µM (inactive) | 20 µM (inactive) | 19.5 µM (inactive) | 18.5 µM (inactive) | 19.9 µM (inactive) | 18.8 µM (inactive) |
